{
  "source": "patent US10130830B2",
  "about": "“Preservative systems comprising cationic surfactants” (Laboratorios Miret, S.A., priority 2005, dated 2018)",
  "key": {"[1]": {"assay": "Concentration of LAE in soaked chickpeas (HPLC)", "assay_type": "physicochemical", "conditions": "Example 13, soaked chickpeas; for Concentration of LAE (HPLC method) expressed as % of initial dose, mean / Concentration of LAE (HPLC method) expressed as % of initial dose: LAE 0.2 g/kg in soaking water; for Concentration of LAE (HPLC method) expressed as % of initial dose, mean: mean of triplicate; for Concentration of LAE (HPLC method) expressed as % of initial dose: samples 1-3, monohydrochloride", "method": "(4) Determination of Preservative Action in Soaked Chick-peas.\nChickpeas are the principal ingredients in a lot of ready-to-eat meals. Before cooking them, chickpeas have to be soaked in water at room temperature for 24 hours. During this period, fermentation processes may occur and therefore, chickpeas would not be suitable for eating. The soaking process cannot be made at refrigeration temperatures, because the structure of the chickpeas could be damaged.\n• 1. Chickpeas were soaked in water for 24 hours at 30° C. and 50% HR (in treated samples preservative was added at this point); and • 2. after 24 hours the chickpeas were strained. Analysis • Samples were analysed (aerobic total count and concentration of the cationic surfactant) by triplicate for 24 hours. • Aerobic total count was analysed by stomaching 25 g of chickpeas in 225 g of buffered peptone water. Dilutions were made in buffered peptone water. Tryptone Soya Agar was harvested with each dilution and incubated at 35° C. for 48 hours. • Average values in log cfu/g of three samples per treatment and day of analysis were calculated. • LAE was analysed by HPLC using an internally validated method."}, "Aerobes": {"test_system": "Aerobes", "assay": "Preservative action in cosmetic products (Antimicrobial Effectiveness Testing USP 24th Edition), aerobes", "assay_type": "cell-based", "excerpt": "(§1) (1) Determination of Preservative Action in Cosmetic Products. […] This assay consists of the contamination of the protecting formulations with an inoculum mixture of 10^8 cfu/ml concentration, for each of the micro-organisms, and the determination of the number of viable cells in time. This inoculum mixture is composed of the following microorganisms: [table] The cosmetic composition to be analysed is divided into sterile containers with 50 g of product for each flask. Each container is inoculated with 0.5 ml of inoculum (10^8 cfu/ml). The target concentration is 10^6 cfu/ml, approximately. All the containers are kept at a temperature between 20-25° C. and are protected from light. The level of the microbial contamination is checked at 0 hours, 7 days, 14 days and 28 days. The number of colonies is evaluated by dilution in buffer peptone with the appropriate neutraliser agent of the preservative. The culture media used for counting the microorganisms are: […] (2) Determination of Preservative Action in Chicken Breast. Process of Preparation • 1. Fresh chicken breast was diced to pieces • 2. Brine (8.70% sodium chloride and 4.35% tripolyphosphate in water) was added to the fresh chicken in an amount of 11.5 g brine per 88.5 g meat in the control preparation and 11.5 g brine and 88.4 g meat in the preparations treated with preservative. • 3. Brine and meat were mixed during 15 minutes, in the preparations treated with preservative the preservative was added after 14 minutes in an amount of 0.2 g/kg. • 4. Vacuum refrigerate tumbling was made during 30 minutes. • 5. Samples were vacuum-packed in sterile bags and they were cooked at 85° C. for 30 minutes. • 6. The cooked chicken was refrigerated at 4° C. • 7. The cooked chicken was diced in irregular shapes. • 8. Then, the nuggets were stored at 10° C. in sterile vacuum-packed bags. Analysis"}, "Moulds": {"test_system": "Moulds", "assay": "Preservative action in cosmetic products (Antimicrobial Effectiveness Testing USP 24th Edition), moulds", "assay_type": "cell-based, Aspergillus niger", "excerpt": "as §1"}, "Yeast": {"test_system": "Yeast", "assay": "Preservative action in cosmetic products (Antimicrobial Effectiveness Testing USP 24th Edition), yeast", "assay_type": "cell-based, Candida albicans", "excerpt": "as §1"}, "[2]": {"test_system": "inoculated microorganisms", "assay": "Preservative action in cosmetic products, overall outcome against the inoculum mixture", "assay_type": "cell-based", "conditions": "Example 17, oil in water emulsion with an ionic emulsifier, 0.20 g of LAE/kg", "excerpt": "as §1, with “Brine and meat were mixed during 15 minutes, in the preparations treated with preservative the preservative was added after 14 minutes in an amount of 0.2 g/kg. • 4. Vacuum refrigerate tumbling was made during 30 minutes. • 5. Samples were vacuum-packed in sterile bags and they were cooked at 85° C. for 30 minutes. • 6. The cooked chicken was refrigerated at 4° C. • 7. The cooked chicken was diced in irregular shapes. • 8. Then, the nuggets were stored at 10° C. in sterile vacuum-packed bags. Analysis” left out"}, "[3]": {"conditions": "Example 10, oil in water emulsion with non-ionic surfactant, 0.2 g/kg, 0 days"}, "[4]": {"conditions": "Example 10, oil in water emulsion with non-ionic surfactant, 0.2 g/kg, 7 days"}, "[5]": {"conditions": "Example 10, oil in water emulsion with non-ionic surfactant, 0.2 g/kg, 14 days"}, "[6]": {"conditions": "Example 12, bath gel, LAE 0.2 g/kg, 0 days"}, "[7]": {"conditions": "Example 12, bath gel, LAE 0.2 g/kg, 7 days"}, "[8]": {"conditions": "Example 12, bath gel, LAE 0.2 g/kg, 14 days"}, "[9]": {"conditions": "Example 15, bath gel, LAE 0.2 g/kg, 0 days"}, "[10]": {"conditions": "Example 15, bath gel, LAE 0.2 g/kg, 7 days"}, "[11]": {"conditions": "Example 15, bath gel, LAE 0.2 g/kg, 14 days"}, "[12]": {"conditions": "Example 17, oil in water emulsion with an ionic emulsifier, 0.20 g of LAE/kg, 0 days"}, "[13]": {"conditions": "Example 17, oil in water emulsion with an ionic emulsifier, 0.20 g of LAE/kg, 7 days"}, "[14]": {"conditions": "Example 17, oil in water emulsion with an ionic emulsifier, 0.20 g of LAE/kg, 14 days"}, "[15]": {"conditions": "Example 19, bath gel, 0.2 g of LAE/kg, 0 days"}, "[16]": {"conditions": "Example 19, bath gel, 0.2 g of LAE/kg, 7 days"}, "[17]": {"conditions": "Example 19, bath gel, 0.2 g of LAE/kg, 14 days"}},
  "note": "Values joined by “and” are separate entries in the source; they are usually repeats but may differ in a detail not shown here. Identical values can stand only once.",
  "data": [
    {"smiles": "CCCCCCCCCCCC(=O)N[C@@H](CCCN=C(N)N)C(=O)OCC.Cl", "note": "[LAE, ethyl ester of the lauramide of the arginine monohydrochloride]", "values": [
      {"measurement": "Concentration of LAE (HPLC method) expressed as % of initial dose, mean", "setting": "[1]; 0 hours", "result": "100 % of initial dose"},
      {"measurement": "Concentration of LAE (HPLC method) expressed as % of initial dose", "setting": "[1]; 0 hours", "result": "100 % of initial dose and 101 % of initial dose"},
      {"measurement": "Concentration of LAE (HPLC method) expressed as % of initial dose, mean", "setting": "[1]; 4 hours", "result": "100 % of initial dose"},
      {"measurement": "Concentration of LAE (HPLC method) expressed as % of initial dose", "setting": "[1]; 4 hours", "result": "101 % of initial dose and 99 % of initial dose and 100 % of initial dose"},
      {"measurement": "Concentration of LAE (HPLC method) expressed as % of initial dose, mean", "setting": "[1]; 8 hours", "result": "98 % of initial dose"},
      {"measurement": "Concentration of LAE (HPLC method) expressed as % of initial dose", "setting": "[1]; 8 hours", "result": "97 % of initial dose and 98 % of initial dose and 99 % of initial dose"},
      {"measurement": "Concentration of LAE (HPLC method) expressed as % of initial dose, mean", "setting": "[1]; 16 hours", "result": "95 % of initial dose"},
      {"measurement": "Concentration of LAE (HPLC method) expressed as % of initial dose", "setting": "[1]; 16 hours", "result": "95 % of initial dose and 96 % of initial dose"},
      {"measurement": "Concentration of LAE (HPLC method) expressed as % of initial dose, mean", "setting": "[1]; 24 hours", "result": "93 % of initial dose"},
      {"measurement": "Concentration of LAE (HPLC method) expressed as % of initial dose", "setting": "[1]; 24 hours", "result": "93 % of initial dose and 92 % of initial dose and 94 % of initial dose"},
      {"measurement": "hydrolysis of LAE", "setting": "[1]; after 24 hours", "result": "~10 % of the original dose"},
      {"measurement": "Aerobes count", "setting": "Aerobes; [3]", "result": 6.2, "unit": "log cfu/g"},
      {"measurement": "Aerobes count", "setting": "Aerobes; [4]", "result": 3.5, "unit": "log cfu/g"},
      {"measurement": "Aerobes count", "setting": "Aerobes; [5]", "result": 3.0, "unit": "log cfu/g"},
      {"measurement": "Aerobes count", "setting": "Aerobes; [6]", "result": 6.2, "unit": "log cfu/g"},
      {"measurement": "Aerobes count", "setting": "Aerobes; [7]", "result": 4.2, "unit": "log cfu/g"},
      {"measurement": "Aerobes count", "setting": "Aerobes; [8]", "result": 3.0, "unit": "log cfu/g"},
      {"measurement": "Aerobes count", "setting": "Aerobes; [9]", "result": 6.1, "unit": "log cfu/g"},
      {"measurement": "Aerobes count", "setting": "Aerobes; [10]", "result": 3.0, "unit": "log cfu/g"},
      {"measurement": "Aerobes count", "setting": "Aerobes; [11]", "result": 2.6, "unit": "log cfu/g"},
      {"measurement": "Aerobes count", "setting": "Aerobes; [12]", "result": 6.1, "unit": "log cfu/g"},
      {"measurement": "Aerobes count", "setting": "Aerobes; [13]", "result": 4.0, "unit": "log cfu/g"},
      {"measurement": "Aerobes count", "setting": "Aerobes; [14]", "result": 2.9, "unit": "log cfu/g"},
      {"measurement": "Aerobes count", "setting": "Aerobes; [15]", "result": 6.0, "unit": "log cfu/g"},
      {"measurement": "Aerobes count", "setting": "Aerobes; [16]", "result": 3.3, "unit": "log cfu/g"},
      {"measurement": "Aerobes count", "setting": "Aerobes; [17]", "result": 2.9, "unit": "log cfu/g"},
      {"measurement": "Moulds count", "setting": "Moulds; [3]", "result": 4.3, "unit": "log cfu/g"},
      {"measurement": "Moulds count", "setting": "Moulds; [4]", "result": "<2.0", "unit": "log cfu/g"},
      {"measurement": "Moulds count", "setting": "Moulds; [5]", "result": "<2.0", "unit": "log cfu/g"},
      {"measurement": "Moulds count", "setting": "Moulds; [6]", "result": 4.5, "unit": "log cfu/g"},
      {"measurement": "Moulds count", "setting": "Moulds; [7]", "result": 2.3, "unit": "log cfu/g"},
      {"measurement": "Moulds count", "setting": "Moulds; [8]", "result": "<2.0", "unit": "log cfu/g"},
      {"measurement": "Moulds count", "setting": "Moulds; [9]", "result": 4.1, "unit": "log cfu/g"},
      {"measurement": "Moulds count", "setting": "Moulds; [10]", "result": "<2.0", "unit": "log cfu/g"},
      {"measurement": "Moulds count", "setting": "Moulds; [11]", "result": "<2.0", "unit": "log cfu/g"},
      {"measurement": "Moulds count", "setting": "Moulds; [12]", "result": 4.1, "unit": "log cfu/g"},
      {"measurement": "Moulds count", "setting": "Moulds; [13]", "result": 2.9, "unit": "log cfu/g"},
      {"measurement": "Moulds count", "setting": "Moulds; [14]", "result": "<2.0", "unit": "log cfu/g"},
      {"measurement": "Moulds count", "setting": "Moulds; [15]", "result": 4.1, "unit": "log cfu/g"},
      {"measurement": "Moulds count", "setting": "Moulds; [16]", "result": 2.0, "unit": "log cfu/g"},
      {"measurement": "Moulds count", "setting": "Moulds; [17]", "result": "<2.0", "unit": "log cfu/g"},
      {"measurement": "Yeast count", "setting": "Yeast; [3]", "result": 5.6, "unit": "log cfu/g"},
      {"measurement": "Yeast count", "setting": "Yeast; [4]", "result": 3.4, "unit": "log cfu/g"},
      {"measurement": "Yeast count", "setting": "Yeast; [5]", "result": 2.6, "unit": "log cfu/g"},
      {"measurement": "Yeast count", "setting": "Yeast; [6]", "result": 4.3, "unit": "log cfu/g"},
      {"measurement": "Yeast count", "setting": "Yeast; [7]", "result": 2.8, "unit": "log cfu/g"},
      {"measurement": "Yeast count", "setting": "Yeast; [8]", "result": "<2.0", "unit": "log cfu/g"},
      {"measurement": "Yeast count", "setting": "Yeast; [9]", "result": 4.3, "unit": "log cfu/g"},
      {"measurement": "Yeast count", "setting": "Yeast; [10]", "result": 3.3, "unit": "log cfu/g"},
      {"measurement": "Yeast count", "setting": "Yeast; [11]", "result": 2.6, "unit": "log cfu/g"},
      {"measurement": "Yeast count", "setting": "Yeast; [12]", "result": 5.3, "unit": "log cfu/g"},
      {"measurement": "Yeast count", "setting": "Yeast; [13]", "result": 3.8, "unit": "log cfu/g"},
      {"measurement": "Yeast count", "setting": "Yeast; [14]", "result": 2.5, "unit": "log cfu/g"},
      {"measurement": "Yeast count", "setting": "Yeast; [15]", "result": 4.5, "unit": "log cfu/g"},
      {"measurement": "Yeast count", "setting": "Yeast; [16]", "result": 3.5, "unit": "log cfu/g"},
      {"measurement": "Yeast count", "setting": "Yeast; [17]", "result": 2.3, "unit": "log cfu/g"},
      {"measurement": "preservation outcome", "setting": "[2]", "result": "effectively preserved"}
    ]}
  ]
}
